Experimental data published in US20170112861A1, “DRUG DELIVERY ENHANCER COMPRISING SUBSTANCE FOR ACTIVATING LYSOPHOSPHOLIPID RECEPTORS” (Osaka University, priority 2014, published 2017).

Tests used:
[1] = test system: Mouse pancreatic vascular endothelial cell line (MS-1); test: In vitro barrier function of endothelial cell-cell junctions (ECIS-Zθ, resistance between cells Rb); type: cell-based; conditions: MS-1 cells, 10 μM
Description: In vitro barrier function of the cell-cell junctions of vascular endothelial cells in the presence of LPA or VPC 31144 (S) was analyzed using a real-time cell ECIS-Zθ analyzer (Applied Biophysics).
LPA and VPC 31144 (S) were each dissolved in 50% ethanol as a 10 mM LPA stock solution and stored at −30° C. Before use, the LPA stock solution was thawed and homogenized with an ultrasonic cleaner (SND Co., Ltd.) for 1 minute. The solution was diluted in a serum-free culture medium supplemented with 0.1% BSA to a concentration of 10 μM.
Mouse pancreatic vascular endothelial cell line (MS-1) was used. The cells were suspended in DMEM (Sigma) containing 5% FBS. The cell suspension was seeded on a well plate with electrodes (8W10E+, 8 wells) specially designed for the analyzer at a density of 1×10^5 cells in 400 μL per well, and the cells were cultured overnight in an incubator to confluence. The medium was replaced by serum-free culture medium containing 0.1% BSA, and the cells were incubated for 4 hours. The medium was replaced by culture medium (serum-free culture medium containing 0.1% BSA) containing 10 μM LPA or VPC 31144 (S). The medium of the control cultures was replaced by serum-free culture medium containing 0.1% BSA. After replacement of the medium, resistance between cells (Rb) was measured in real time to evaluate the barrier function.

[2] = test system: tumor blood vessels of LLC cell tumors; test: Structural changes in tumor blood vessels after S1P administration (anti-CD31 immunostaining); type: in vivo; conditions: LLC tumor-bearing mice, S1P 0.3 mg/kg tail vein once daily for three days, 24 hours after final administration
Description: LLC cells were subcutaneously inoculated into C57BL/6 […] mice aged 8 weeks (females, SLC, Inc.) in the same manner as in Example 1. S1P (Avanti Polar Lipids, Inc.) was dissolved in PBS at 10 mM and the solution was stored at -30° C. as a stock solution. Before use, the stock solution was thawed and homogenized with an ultrasonic cleaner (SND Co., Ltd.) for 1 minute. The solution was diluted in PBS before administration so that the concentration of S1P was 0.3 mg/kg in 100 μL PBS. The prepared solution was used for S1P administration. Mice on day 9 post-inoculation of LLC cells (individuals with a tumor volume of 60 to 80 mm^3) were subjected to the experiment. The mice were divided into two groups: control group and S1P group (n=3). From the day of grouping, S1P was administered to the tail vein of the S1P group mice at a dose of 0.3 mg/kg in 100 μL PBS once daily for consecutive three days. To the control group mice, PBS (100 μL) was administered instead of S1P. At 24 hours after the final administration, the tumors were harvested from the mice, and the specimens of tumor blood vessels were prepared in the same manner as in Example 1. The specimens were observed and photographed under a confocal laser microscope (Leica).

Row | SMILES | speed of barrier function increase ([1]; immediately after addition, compared with LPA) | electric resistance (Rb), barrier function in endothelial cells ([1]; serum-free medium with 0.1% BSA, vs control) | formation of a network of tumor blood vessels [2]
1 | CCCCCCCC/C=C\CCCCCCCC(=O)N[C@@H](CO)COP(=O)(O)O [VPC 31144, N-{(1S)-2-hydroxy-1-[(phosphonooxy)methyl]ethyl}(9Z) octadec-9-enamide] | more rapidly increased the barrier function immediately after the administration, as compared with addition of LPA | also increased the barrier function in endothelial cells | –
2 | CCCCCCCCCCCCC/C=C/[C@@H](O)[C@@H](N)COP(=O)(O)O [S1P, sphingosine-1-phosphate] | – | – | the formation of a network of tumor blood vessels was induced
